From patent US20210161135A1, “WEED CONTROL FROM APPLICATIONS OF PYRIDINE CARBOXYLIC ACID HERBICIDES AND 4-HYDROXYPHENYL-PYRUVATE DIOXYGENASE (HPPD) INHIBITORS” (Dow AgroSciences LLC, priority 2018, published 2021) come the findings set out here.

The structures appear in SMILES notation.

Common to all, as to test: Postemergence herbicidal activity, greenhouse, visual injury after 20-22 d
Holding throughout (type): in vivo

The subject of assay [1] is poinsettia (Euphorbia heterophylla, EPHHL). On the procedure:
(§1) Seeds of the desired test plant species were planted in Sun Gro MetroMix® 306 planting mixture, which typically has a pH of 6.0 to 6.8 and an organic matter content of about 30 percent, in plastic pots with a surface area of 103.2 square centimeters (cm^2). When required to ensure good germination and healthy plants, a fungicide treatment and/or other chemical or physical treatment was applied. The plants were grown for 7-36 days (d) in a greenhouse with an approximate 14-hour (h) photoperiod which was maintained at about 23° C. during the day and 22° C. during the night. Nutrients and water were added on a regular basis and supplemental lighting was provided with overhead metal halide 1000-Watt lamps as necessary. The plants were employed for testing when they reached the second or third true leaf stage.
(§2) An emulsifiable concentrate (EC) formulation containing Compound 1 at 100 gai/L was prepared by combining Compound 1 with 1-butyl-2-pyrrolidinone (Tamisolve NxG; 360.5 g/L), benzyl acetate (544.6 g/L) and Agnique MBL 520L surfactant (52.9 g/L). […] The concentrated stock solutions were diluted with an aqueous mixture of 1.5% v/v of Agri-dex crop oil concentrate to provide the appropriate application rates. Compound requirements are based upon a 12 milliliter (mL) application volume at a rate of 187 liters per hectare (L/ha). Spray solutions of the experimental compound mixtures were prepared by adding the stock solutions to the appropriate amount of dilution solution to form a 12 mL spray solution in two-way combinations. Formulated compounds were applied to the plant material with an overhead Mandel track sprayer equipped with 8002E nozzles calibrated to deliver 187 L/ha over an application area of 0.503 square meters (m^2) at a spray height of […] above average plant canopy. Control plants were sprayed in the same manner with the solvent blank. Application rates for component (a) are in g ai/ha, and application rates for component (b) are in g ai/ha.
(§3) The treated plants and control plants were placed in a greenhouse as described above and watered by sub-irrigation to prevent wash-off of the test compounds. After 20-22 d, the condition of the test plants as compared with that of the control plants was determined visually and scored on a scale of 0 to 100 percent where 0 corresponds to no injury and 100 corresponds to complete kill. […] The Colby method was used to determine the herbicidal effects expected from the mixtures.

Assay [2] relates to winter rape (Brassica napus, BRSNW). Particulars: two trials. On the procedure: as §1, §2, §3
Assay [3] concerns rice (Oryza sativa, ORYSA). The conditions noted are these: two trials. How it is done:
as §1, §2, §3

The subject of assay [4] is velvetleaf (Abutilon theophrasti, ABUTH). How it is done:
as §1, §2, §3

Assay [5] concerns spring rape (Brassica napus, BRSNN). How it is done:
as §1, §2, §3

The subject of assay [6] is common chickweed (Stellaria media, STEME). The conditions noted are these: two trials. How it is done:
as §1, §2, §3

The test system of assay [7] is wild buckwheat (Polygonum convolvulus, POLCO). On the procedure: as §1, §2, §3
The subject of assay [8] is barnyardgrass (Echinochloa crus-galli, ECHCG). The conditions noted are these: two trials. On the procedure:
as §1, §2, §3

For assay [9], the system named is thistle (Cirsium arvense CIRAR). On the procedure: as §1, §2, §3
The test system of a further assay is maize (Zea mays, ZEAMX). Particulars: two trials. On the procedure:
as §1, §2, §3

Assay [10] concerns ivyleaf morningglory (Ipomoea hederacea, IPOHE). The conditions noted are these: two trials. How it is done: as §1, §2, §3
Assay [11] has as its system grain sorghum (Sorghum vulgare, SORVU). Particulars: two trials. On the procedure: as §1, §2, §3
Assay [12] concerns large crabgrass (Digitaria sanguinalis, DIGSA). Particulars: HPPD inhibitor 35 g ai/ha alone, two trials. On the procedure: as §1, §2, §3
Assay [13] has as its system common lambsquarters (Chenopodium album L., CHEAL). On the procedure: as §1, §2, §3
Assay [14] has as its system soybean (Glycine max, GLXMA). The conditions noted are these: two trials. On the procedure:
as §1, §2, §3

For assay [15], the system named is winter wheat (Triticum aestivum, TRZAW). Particulars: two trials. How it is done: as §1, §2, §3
The test system of assay [16] is kochia (Kochia scoparia, KCHSC). On the procedure:
as §1, §2, §3

For assay [17], the system named is giant foxtail (Setaria faberi, SETFA). How it is done: as §1, §2, §3
Assay [18] concerns wild oat (Avena fatua, AVEFA). Particulars: HPPD inhibitor 35 g ai/ha alone, two trials. How it is done: as §1, §2, §3
Assay [19] has as its system sunflower (Helianthus annuus, HELAN). Particulars: two trials. On the procedure: as §1, §2, §3
Assay [20] has as its system pigweed (Amaranthus retroflexus, AMARE). The conditions noted are these: two trials. On the procedure:
as §1, §2, §3

For assay [21], the system named is wild pansy (Viola tricolor, VIOTR). On the procedure:
as §1, §2, §3

The mark [22] stands for this setting: HPPD inhibitor 35 g ai/ha alone, two trials.
Setting [23] is: HPPD inhibitor 35 g ai/ha alone.
The mark [24] stands for this setting: Sulcotrione 75 g ai/ha alone, two trials.

In the case of `CS(=O)(=O)c1cc(C(F)(F)F)ccc1C(=O)c1cnoc1C1CC1` [Isoxaflutole, (5-cyclopropyl-4-isoxazolyl)[2-(methylsulfonyl)-4-(trifluoromethyl)phenyl]methanone], the “Effect (% visual injury), Obs” value was determined as 43% in assay [1] (setting [22]); 60% in assay [2] (setting [23]); 30% in assay [3] (setting [23]); 45% in assay [4] (setting [22]); 85% in [5] (setting [22]); 10% in [6] (setting [23]). The “Effect (% visual injury), Obs” value in assay [7] (setting [22]) was 10%; in [8] (setting [23]), 25%; in [9] (setting [22]), 75%; in the assay with maize (Zea mays, ZEAMX) (setting [23]), 0%; in [10] (setting [23]), 70%; in assay [11] (setting [23]) it was 0%. The “Effect (% visual injury), Obs” value amounted to 50% in assay [12]; 99% in assay [13] (setting [22]); 75% in assay [14] (setting [23]); 15% in [15] (setting [23]); 90% in assay [16] (setting [22]); 97% in assay [17] (setting [22]). Further, the “Effect (% visual injury), Obs” value in [18] was 60%; in assay [19] (setting [23]), 90%; in assay [20] (setting [23]) it was 95%; in [21] (setting [22]) it was 45%.

Consider `CS(=O)(=O)c1ccc(C(=O)C2C(=O)CCCC2=O)c([N+](=O)[O-])c1` [Mesotrione, 2-[4-(methylsulfonyl)-2-nitrobenzoyl]-1,3-cyclohexanedione], for which the “Effect (% visual injury), Obs” value in assay [1] (setting [22]) is recorded as 20%; in [2] (setting [23]), 60%; in [4] (setting [22]), 88%; in assay [5] (setting [22]), 100%; in assay [6] (setting [23]), 60%; in assay [7] (setting [22]) it was 48%. The “Effect (% visual injury), Obs” value in assay [8] (setting [23]) came to 10%; in [9] (setting [22]) it was 100%; in the assay on maize (Zea mays, ZEAMX) (setting [23]) it was 0%; in [10] (setting [23]) it was 70%; in assay [11] (setting [23]) it was 0%; in [12], 20%. The “Effect (% visual injury), Obs” value in assay [13] (setting [22]) is recorded as 100%; in assay [14] (setting [23]), 70%; in assay [16] (setting [22]) it was 70%; in assay [17] (setting [22]), 0%; in [19] (setting [23]) it was 93%; in [20] (setting [23]) it was 30%. Also, in assay [21] (setting [22]), the “Effect (% visual injury), Obs” value came out at 58%.

On to `CS(=O)(=O)c1ccc(C(=O)C2C(=O)CCCC2=O)c(Cl)c1` [Sulcotrione, 2-[2-chloro-4-(methylsulfonyl)benzoyl]-1,3-cyclohexanedione], for which the “Effect (% visual injury), Obs” value in [1] (setting [24]) is reported as 60%; in [2] (Sulcotrione 75 g ai/ha alone), 70%; in [3] (Sulcotrione 75 g ai/ha alone), 5%; in assay [4] (setting [24]) it was 50%; in [5] (setting [24]), 95%; in assay [6] (Sulcotrione 75 g ai/ha alone), 85%. The “Effect (% visual injury), Obs” value in assay [7] (setting [24]) is 48%; in [8] (Sulcotrione 75 g ai/ha alone), 40%; in assay [9] (setting [24]) it was 70%; with maize (Zea mays, ZEAMX) (Sulcotrione 75 g ai/ha alone), 0%; in assay [10] (Sulcotrione 75 g ai/ha alone) it was 65%; in [11] (Sulcotrione 75 g ai/ha alone), 0%. For the same compound, the “Effect (% visual injury), Obs” value stood at 100% in [13] (setting [24]); 65% in assay [14] (Sulcotrione 75 g ai/ha alone); 0% in assay [15] (Sulcotrione 75 g ai/ha alone); 45% in assay [16] (setting [24]); 0% in assay [17] (setting [24]); 80% in assay [19] (Sulcotrione 75 g ai/ha alone). Besides, the figures for the “Effect (% visual injury), Obs” value in [20] (Sulcotrione 75 g ai/ha alone) and in assay [21] (setting [24]) were 40% and 73%, respectively.

As to `Cc1ccc(S(=O)(=O)Oc2c(C(=O)c3ccc(Cl)cc3Cl)c(C)nn2C)cc1` [Pyrazolynate, (2,4-dichlorophenyl)[1,3-dimethyl-5-[[(4-methylphenyl)sulfonyl]oxy]-1H-pyrazol-4-yl]methanone], the “Effect (% visual injury), Obs” value in assay [1] (Pyrazolynate 225 g ai/ha alone) came to 0%; in assay [4] (Pyrazolynate 225 g ai/ha alone), 0%; in assay [5] (Pyrazolynate 225 g ai/ha alone), 0%; in assay [7] (Pyrazolynate 225 g ai/ha alone) it was 0%; in [9] (Pyrazolynate 225 g ai/ha alone), 0%; in [13] (Pyrazolynate 225 g ai/ha alone), 10%. Besides, the “Effect (% visual injury), Obs” value in assay [16] (Pyrazolynate 225 g ai/ha alone) and in assay [21] (Pyrazolynate 225 g ai/ha alone) was 0% in each case.

For `CS(=O)(=O)c1ccc(C(=O)C2=C(Sc3ccccc3)C3CCC(C3)C2=O)c(Cl)c1` (stereo not drawn) [Benzobicyclon, 3-[2-chloro-4-(methylsulfonyl)benzoyl]-4-(phenylthio)bicyclo[3.2.1]oct-3-en-2-one], the “Effect (% visual injury), Obs” value in assay [1] (Benzobicyclon 50 g ai/ha alone) is reported as 5%; in assay [4] (Benzobicyclon 50 g ai/ha alone), 25%; in assay [5] (Benzobicyclon 50 g ai/ha alone) it was 0%; in assay [7] (Benzobicyclon 50 g ai/ha alone), 0%; in assay [9] (Benzobicyclon 50 g ai/ha alone), 20%; in [13] (Benzobicyclon 50 g ai/ha alone), 100%. Besides, the “Effect (% visual injury), Obs” value in [16] (Benzobicyclon 50 g ai/ha alone) is 10%; in [17] (Benzobicyclon 50 g ai/ha alone), 0%; in assay [21] (Benzobicyclon 50 g ai/ha alone), 10%.
